Laboratory results reported in patent publication US20210017174A1, “IDENTIFICATION AND USE OF ERK5 INHIBITOR” (Bayer Aktiengesellschaft, priority 2018, published 2021).

Legend:
ERK5 = molecular target: T1, ERK5 (Homo sapiens, UniProt Q13164); experiment: TR-FRET-based Erk5 activity inhibition assay (biochemical assay ERK5); details: TR-FRET, 250 μM ATP, 1 μM substrate peptide, 60 min at 22° C.; read-out: IC50 value biochemiocal ERK5 asssay
T1 construct: host or cells: E. coli

[1] = tested on: SN12C-MEF2-luc (clone #37) reporter cell line; experiment: Luciferase reporter assay in SN12C-MEF2-luc cells (EGF-stimulated, MEF2-responsive luciferase); format: cell-based; details: Homo sapiens, 16 h compound incubation, then EGF 100 ng/ml for 2 h, ONE-Glo luminescence;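 also: serially diluted compounds at 37 °C, EGF with DMSO as maximum signal and EGF with a 10 µM reference inhibitor as minimum (full inhibition)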

T1 sequence (Q13164 1-398): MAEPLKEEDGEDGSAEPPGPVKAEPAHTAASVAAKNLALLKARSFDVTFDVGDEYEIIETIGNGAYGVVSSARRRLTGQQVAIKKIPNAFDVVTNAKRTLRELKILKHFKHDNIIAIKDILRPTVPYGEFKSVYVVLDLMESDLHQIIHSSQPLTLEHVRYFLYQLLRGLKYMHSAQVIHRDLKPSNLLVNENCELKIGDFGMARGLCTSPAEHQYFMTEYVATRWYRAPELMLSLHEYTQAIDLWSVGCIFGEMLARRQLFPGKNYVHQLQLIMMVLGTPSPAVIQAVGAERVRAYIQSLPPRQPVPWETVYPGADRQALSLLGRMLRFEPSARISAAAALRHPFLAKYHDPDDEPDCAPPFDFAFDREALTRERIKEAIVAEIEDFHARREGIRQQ

COc1cc2ncnc(C3CCN(C(=O)c4ccc(OC(F)(F)F)cc4F)CC3)c2cc1OC [Example 2, [4-(6,7-Dimethoxyquinazolin-4-yl)piperidin-1-yl][2-fluoro-4-(trifluoromethoxy)phenyl]methanone]
IC50 (ERK5): 93.1 nM
IC50 [1]: 935 nM

COc1cc2ncnc(C3CCN(C(=O)c4ccc(COC(F)(F)F)cc4)CC3)c2cc1OC [Example 5, [4-(6,7-Dimethoxyquinazolin-4-yl)piperidin-1-yl]{4-[(trifluoromethoxy)methyl]phenyl}methanone]
IC50 (ERK5): 1140 nM
IC50 [1]: 11300 nM

COc1cc2ncnc(C3CCN(C(=O)c4ccc(SC(F)(F)F)cc4)CC3)c2cc1OC [Example 16, [4-(6,7-Dimethoxyquinazolin-4-yl)piperidin-1-yl]{4-[(trifluoromethyl)sulfanyl]-phenyl}methanone]
IC50 (ERK5): 159 nM
IC50 [1]: 1720 nM

CCCCOc1ccc(C(=O)N2CCC(c3ncnc4cc(OC)c(OC)cc34)CC2)cc1 [Example 17, (4-Butoxyphenyl)[4-(6,7-dimethoxyquinazolin-4-yl)piperidin-1-yl]methanone]
IC50 (ERK5): 111 nM
IC50 [1]: 13100 nM

COc1cc2ncnc(C3CCN(C(=O)c4ccc(OC(F)(F)F)c(F)c4)CC3)c2cc1OC [Example 22, [4-(6,7-Dimethoxyquinazolin-4-yl)piperidin-1-yl][3-fluoro-4-(trifluoromethoxy)phenyl]methanone]
IC50 (ERK5): 88.5 nM
IC50 [1]: 1230 nM

COc1cc2ncnc(C3CCN(C(=O)c4ccc(OC(C)(C)C)cc4)CC3)c2cc1OC [Example 25, (4-Tert-butoxyphenyl)[4-(6,7-dimethoxyquinazolin-4-yl)piperidin-1-yl]methanone]
IC50 (ERK5): 1030 nM
IC50 [1]: 6830 nM

C=CCOc1ccc(C(=O)N2CCC(c3ncnc4cc(OC)c(OC)cc34)CC2)cc1 [Example 27, [4-(6,7-Dimethoxyquinazolin-4-yl)piperidin-1-yl][4-(prop-2-en-1-yloxy)phenyl]-methanone]
IC50 (ERK5): 401 nM
IC50 [1]: 4910 nM

COC(=O)c1ccc2c(C3CCN(C(=O)c4ccc(OC(F)(F)F)cc4)CC3)ncnc2c1 [Example 31, Methyl 4-{1-[4-(trifluoromethoxy)benzoyl]piperidin-4-yl}quinazoline-7-carboxylate]
IC50 (ERK5): 579 nM
IC50 [1]: 14600 nM

CNC(=O)c1ccc2c(C3CCN(C(=O)c4ccc(OC(F)(F)F)cc4)CC3)ncnc2c1 [Example 41, N-Methyl-4-{1-[4-(trifluoromethoxy)benzoyl]piperidin-4-yl}quinazoline-7-carboxamide]
IC50 (ERK5): 1090 nM
IC50 [1]: 7040 nM

O=C(c1ccc(OC(F)(F)F)cc1)N1CCC(c2ncnc3cc(OCCO)ccc23)CC1 [Example 47, {4-[7-(2-Hydroxyethoxy)quinazolin-4-yl]piperidin-1-yl}[4-(trifluoromethoxy)-phenyl]methanone]
IC50 (ERK5): 110 nM
IC50 [1]: 2450 nM

O=C(c1ccc(OC(F)(F)F)cc1)N1CCC(c2ncnc3cc(OC4CCOCC4)ccc23)CC1 [Example 49, {4-[7-(Tetrahydro-2H-pyran-4-yloxy)quinazolin-4-yl]piperidin-1-yl}[4-(trifluoromethoxy)phenyl]-methanone]
IC50 (ERK5): 145 nM
IC50 [1]: 352 nM

CC(=O)NCCOc1ccc2c(C3CCN(C(=O)c4ccc(OC(F)(F)F)cc4)CC3)ncnc2c1 [Example 50, N-{2-[(4-{1-[4-(Trifluoromethoxy)benzoyl]piperidin-4-yl}quinazolin-7-yl)oxy]ethyl}acetamide]
IC50 (ERK5): 167 nM
IC50 [1]: 387 nM

O=C(c1ccc(OC(F)(F)F)cc1)N1CCC(c2ncnc3cc(C4CC4)ccc23)CC1 [Example 51, [4-(7-Cyclopropylquinazolin-4-yl)piperidin-1-yl][4-(trifluoromethoxy)phenyl]-methanone]
IC50 (ERK5): 43 nM
IC50 [1]: 594 nM

O=C(c1ccc(OC(F)(F)F)cc1)N1CCC(c2ncnc3cc(C4=CCOCC4)ccc23)CC1 [Example 52, {4-[7-(3,6-Dihydro-2H-pyran-4-yl)quinazolin-4-yl]piperidin-1-yl}[4-(trifluoro-methoxy)phenyl]-methanone]
IC50 (ERK5): 24.7 nM
IC50 [1]: 500 nM

O=C(c1ccc(OC(F)(F)F)cc1)N1CCC(c2ncnc3cc(-c4ccn[nH]4)ccc23)CC1 [Example 53, {4-[7-(1H-Pyrazol-5-yl)quinazolin-4-yl]piperidin-1-yl}[4-(trifluoromethoxy)-phenyl]methanone]
IC50 (ERK5): 78.1 nM
IC50 [1]: 627 nM

O=C(c1ccc(OC(F)(F)F)cc1)N1CCC(c2ncnc3cc(N4CCCC4=O)ccc23)CC1 [Example 54, 1-(4-{1-[4-(Trifluoromethoxy)benzoyl]piperidin-4-yl}quinazolin-7-yl)pyrrolidin-2-one]
IC50 (ERK5): 190 nM
IC50 [1]: 942 nM

O=C(c1ccc(OC(F)(F)F)cc1)N1CCC(c2ncnc3cc(OCC(F)F)ccc23)CC1 [Example 64, {4-[7-(2,2-Difluoroethoxy)quinazolin-4-yl]piperidin-1-yl}[4-(trifluoromethoxy)-phenyl]methanone]
IC50 (ERK5): 89.8 nM
IC50 [1]: 694 nM

COc1ccc2c(C3CCN(C(=O)c4ccc(OC(F)(F)F)cc4NC(C)=O)CC3)ncnc2c1 [Example 67, N-[2-{[4-(7-Methoxyquinazolin-4-yl)piperidin-1-yl]carbonyl}-5-(trifluoro-methoxy)phenyl]acetamide]
IC50 (ERK5): 241 nM
IC50 [1]: 669 nM

CN1CCC(Nc2cnc3c(C4CCN(C(=O)c5ccc(OC(F)(F)F)cc5)CC4)ncnc3c2)CC1 [Example 71, (4-{7-[(1-Methylpiperidin-4-yl)amino]pyrido[3,2-d]pyrimidin-4-yl}piperidin-1-yl)[4-(trifluoromethoxy)phenyl]methanone]
IC50 (ERK5): 153 nM
IC50 [1]: 436 nM

O=C(c1ccc(OC(F)(F)F)cc1)N1CCC(c2ncnc3cc(N4CCC(F)(F)C4)cnc23)CC1 [Example 72, {4-[7-(3,3-Difluoropyrrolidin-1-yl)pyrido[3,2-d]pyrimidin-4-yl]piperidin-1-yl}[4-(trifluoromethoxy)phenyl]methanone]
IC50 (ERK5): 69.3 nM
IC50 [1]: 415 nM

CC1(N)CCN(c2cnc3c(C4CCN(C(=O)c5ccc(OC(F)(F)F)cc5)CC4)ncnc3c2)CC1 [Example 73, {4-[7-(4-Amino-4-methylpiperidin-1-yl)pyrido[3,2-d]pyrimidin-4-yl]piperidin-1-yl}[4-(trifluoromethoxy)phenyl]methanone]
IC50 (ERK5): 39.1 nM
IC50 [1]: 253 nM

O=C(c1ccc(OC(F)(F)F)cc1)N1CCC(c2ncnc3cc(N4CCC(F)(F)CC4)cnc23)CC1 [Example 77, {4-[7-(4,4-Difluoropiperidin-1-yl)pyrido[3,2-d]pyrimidin-4-yl]piperidin-1-yl}[4-(trifluoromethoxy)phenyl]methanone]
IC50 (ERK5): 30.3 nM
IC50 [1]: 132 nM

CC1(C)CN(c2cnc3c(C4CCN(C(=O)c5ccc(OC(F)(F)F)cc5)CC4)ncnc3c2)CCO1 [Example 78, {4-[7-(2,2-Dimethylmorpholin-4-yl)pyrido[3,2-d]pyrimidin-4-yl]piperidin-1-yl}[4-(trifluoromethoxy)phenyl]methanone]
IC50 (ERK5): 36.3 nM
IC50 [1]: 103 nM

COC1CCN(c2cnc3c(C4CCN(C(=O)c5ccc(OC(F)(F)F)cc5)CC4)ncnc3c2)CC1 [Example 79, {4-[7-(4-Methoxypiperidin-1-yl)pyrido[3,2-d]pyrimidin-4-yl]piperidin-1-yl}[4-(trifluoromethoxy)phenyl]methanone]
IC50 (ERK5): 49.9 nM
IC50 [1]: 122 nM

CN1CCN(c2cnc3c(C4CCN(C(=O)c5ccc(OC(F)(F)F)cc5N)CC4)ncnc3c2)CC1 [Example 81, [2-Amino-4-(trifluoromethoxy)phenyl]{4-[7-(4-methylpiperazin-1-yl)pyrido[3,2-d]pyrimidin-4-yl]piperidin-1-yl}methanone]
IC50 [1]: 115 nM
